According to PubChem BioAssay (NCI):
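Tested at 5 concentrations; 48 h exposure; 96-well plates; endpoints linearly interpolated, else capped at highest concentration. GI50 = concentration required for 50% inhibition of growth. Definition used: TGI = concentration required for complete inhibition of growth.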 Where a SMILES comes first, the peptide text is derived from it. Bridges are numbered along the chain shown (N, C = ends). [ ]: non-standard residue; d: D form. The star is where a group is joined. ξ: configuration not given here. X26 = O=C(/C=C/C=C/C=C/C=C/C=C/C(=O)*)NC1=C(O)CCC1=O; NMeA = CN[C@@H](C)C(=O)O; ξF = NC(Cc1ccccc1)C(=O)O; ξA = CC(N)C(=O)O

Assays:
Assay in all cases: NCI-60 cell line screen, 48 h
PC-3 prostate = tested on: PC-3 prostate
HL-60(TB) leukemia = tested on: HL-60(TB) leukemia
OVCAR-3 ovarian = tested on: OVCAR-3 ovarian
HT29 colon = tested on: HT29 colon
MDA-MB-435 = tested on: MDA-MB-435
IGROV1 ovarian = tested on: IGROV1 ovarian
SW-620 colon = tested on: SW-620 colon
SK-MEL-28 melanoma = tested on: SK-MEL-28 melanoma
A498 renal = tested on: A498 renal
NCI-H226 lung = tested on: NCI-H226 lung

Compound | TGI (PC-3 prostate) [µM] | TGI (HL-60(TB) leukemia) [µM] | TGI (OVCAR-3 ovarian) [µM] | TGI (HT29 colon) [µM] | TGI (MDA-MB-435) [µM] | TGI (IGROV1 ovarian) [µM] | TGI (SW-620 colon) [µM] | TGI (SK-MEL-28 melanoma) [µM] | TGI (A498 renal) [µM] | TGI (NCI-H226 lung) [µM] | GI50 (A498 renal) [µM] | GI50 (PC-3 prostate) [µM] | GI50 (NCI-H226 lung) [µM] | GI50 (HT29 colon) [µM] | GI50 (IGROV1 ovarian) [µM] | GI50 (SK-MEL-28 melanoma) [µM]
O=C(Nc1ccccc1F)c1cc2ccc(O)cc2oc1=Nc1ccccc1F | 7.61 | 4.54 | 3.83 | 32.9 | 4.24 | 4.13 | 8.98 | 5.8 |  |  |  |  |  |  |  | 
c1ccc2c(c1)c1c(n2CCOCCN2CCOCC2)CCCC1 | > 100 | 51.9 | > 100 | 31.6 |  | > 100 | > 100 | 52 | 98.9 |  |  |  |  |  |  | 
CC1CN=C(N(C(=O)Nc2ccc(F)c(Cl)c2)c2ccccc2)S1 (configuration not stated) | 95.5 |  | > 100 | 58 |  | > 100 | 90.3 | 33.5 | 62.1 |  |  |  |  |  |  | 
Cc1cn([C@@H]2C[C@H](CO)[C@@H](O)C2)c(=O)[nH]c1=O |  | > 100 | > 100 | > 100 |  | > 100 | > 100 | > 100 |  | > 100 |  |  |  |  |  | 
CC(C)=CCC/C(C)=C/COC(C)(C)C1=CCC(C)CC1 (configuration not stated) (tested in a mixture with another compound) | > 100 | 50.9 | > 100 | > 100 | > 100 | > 100 | > 100 | > 100 | > 100 |  |  |  |  |  |  | 
Cn1ccnc1C(O)(c1nccn1C)c1nccn1C |  | > 100 |  | > 100 |  |  | > 100 | > 100 |  | > 100 |  |  |  |  |  | 
O=c1ccn(C2OC(CO)C(P(=O)(O)O)C2O)c(=O)[nH]1 (configuration not stated) | > 100 | > 100 | > 100 | > 100 |  | > 100 | > 100 | > 100 | > 100 | > 100 |  |  |  |  |  | 
CSC(=Nc1ccccc1)N(c1ccccc1)c1nc(=[N+](C)C)ss1 |  | 3.2 | 4.83 | 0.383 |  | 12.8 | 3.27 | 2.83 | 27.9 |  |  |  |  |  |  | 
Cc1ccc(CC[P+](=O)CCc2ccc(C)nc2)cn1 | > 100 | > 100 | > 100 | > 100 | > 100 | > 100 | > 100 | > 100 |  | > 100 |  |  |  |  |  | 
CC(=O)OCC1OC(n2cc(I)c(=O)[nH]c2=O)C(OC(C)=O)C(OC(C)=O)C1OC(C)=O (configuration not stated) |  | > 100 | > 100 | > 100 |  | > 100 | > 100 | > 100 | > 100 | > 100 |  |  |  |  |  | 
O=C1Sc2ccccc2C(=O)N2CSCC12 (configuration not stated) |  | > 100 | > 100 | > 100 |  | > 100 | > 100 | > 100 |  | > 100 |  |  |  |  |  | 
CCOC(=O)C1(C(=O)OCC)COS(=O)OC1 | > 100 |  | 42.1 | > 100 | > 100 |  | 36.1 | 95.7 | > 100 | 40.6 |  |  |  |  |  | 
N#CC1=C(c2ccccc2)NNC(c2ccc(Cl)cc2)CC1=O (configuration not stated) |  | > 100 |  | > 100 |  |  | > 100 | > 100 | > 100 | 8.26 |  |  |  |  |  | 
CC1NC(=O)[C@H](C)N(C)C(=O)[C@@H]2CCCN2C(=O)[C@@H](NC(=O)C(Cc2ccccc2)NC(=O)/C=C/C=C/C=C/C=C/C=C/C(=O)NC2=C(O)CCC2=O)COC(=O)[C@@H]2CCCN2C1=O (some centres not stated) (X26-[ξF]SP[NMeA][ξA]P; ester 2-C) | > 100 | > 100 | > 100 | > 100 | > 100 | > 100 | > 100 | > 100 |  |  |  |  |  |  |  | 
Cc1c(N2C(=O)C(Cl)C2c2ccc(Cl)cc2)c(=O)n(-c2ccccc2)n1C (configuration not stated) | > 100 | > 100 | > 100 | > 100 | 59.8 | > 100 | > 100 |  |  | > 100 |  |  |  |  |  | 
N=C(N)c1ccc(-c2ccc(-c3cccs3)s2)cc1 | 3.15 |  |  | 2.6 |  | 3.53 |  | 3.07 | 3.04 | 33 | 0.462 | 1.62 | 4.03 | 1.24 | 1.84 | 1.63
Nc1nc(N)c(N=O)c(Nc2ccc(Br)cc2)n1 |  | > 100 | 79.3 | 52.3 |  | 39.4 | > 100 | 68.6 | 35.2 | 92.7 |  |  |  |  |  | 
CC12CCC3C(CCC4CC(OC(=O)Cc5ccc(N(CCCl)CCCl)cc5)CCC43C)C1CCC(=O)N2 (configuration not stated) |  | 22 | 32.1 | 30.2 |  | 31 | 27.8 | 30.9 | 31.4 | 30.1 |  |  |  |  |  | 
